Reference: US5543406A, “Inhibitors of 5-α-testosterone reductase” (priority 1994, dated 1996)

biological target: T1, Steroid 5-α-Reductase (Homo sapiens, UniProt P31213); assay: Steroid 5-α-reductase in vitro assay, human prostate microsomes (BPH patients); type: biochemical; conditions: human prostatic microsomes; 100 nM [3H]-testosterone, 1 mM NADPH, 60 minutes at 37° C.
T1 construct: microsomes derived from prostate tissue of benign prostatic hypertrophy (BPH) patients; from tissue; host or cells: prostate tissue of BPH patients, microsomes
T1 sequence (P31213 1-254): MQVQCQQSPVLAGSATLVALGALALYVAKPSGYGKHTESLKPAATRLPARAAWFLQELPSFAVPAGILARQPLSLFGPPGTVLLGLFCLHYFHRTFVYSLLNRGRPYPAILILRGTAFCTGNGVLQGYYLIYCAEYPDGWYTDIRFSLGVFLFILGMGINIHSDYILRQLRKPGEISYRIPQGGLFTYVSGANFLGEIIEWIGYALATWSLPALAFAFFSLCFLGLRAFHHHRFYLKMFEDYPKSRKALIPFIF

Row | IC50 [nM] | SMILES
1 | < 10 | CCN(CC)C(=O)[C@H]1CC[C@H]2[C@@H]3CN(C)C4=CC(=O)CC[C@]4(C)[C@H]3CC[C@]12C [Compound 2, 17β-N,N-Diethylcarbamoyl-6-methyl-6-azaandrost-4-en-3-one]
2 | 100 to 1000 | CCN(CC)C(=O)[C@H]1CC[C@H]2[C@@H]3CN(CCCO)C4=CC(=O)CC[C@]4(C)[C@H]3CC[C@]12C [Compound 15, 17β-N,N-Diethylcarbamoyl-6-(3-hydroxypropyl)-6-azaandrost-4-en-3-one]
3 | 100 to 1000 | C=CCN1C[C@H]2[C@@H]3CC[C@H](C(=O)N(CC)CC)[C@@]3(C)CC[C@@H]2[C@@]2(C)CCC(=O)C=C12 [Compound 42, 17β-N,N-Diethylcarbamoyl-6-allyl-6-azaandrost-4-en-3-one]
4 | 100 to 1000 | CCN(CC)C(=O)[C@H]1CC[C@H]2[C@@H]3CN(CC(=O)O)C4=CC(=O)CC[C@]4(C)[C@H]3CC[C@]12C [Compound 44, 17β-N,N-Diethylcarbamoyl-6-(2-acetic acid)-6-azaandrost-4-en-3-one]
5 | 100 to 1000 | CCN(CC)C(=O)[C@H]1CC[C@H]2[C@@H]3CN(CCC(=O)O)C4=CC(=O)CC[C@]4(C)[C@H]3CC[C@]12C [Compound 45, 17β-N,N-Diethylcarbamoyl-6-(3-propanoic acid)-6-azaandrost-4-en-3-one]
6 | 100 to 1000 | CCN(CC)C(=O)[C@H]1CC[C@H]2[C@@H]3CN(CCC(=O)OC)C4=CC(=O)CC[C@]4(C)[C@H]3CC[C@]12C [Compound 46, 17β-N,N-Diethylcarbamoyl-6-(methyl-3-propanoate)-6-azaandrost-4-en-3-one]
7 | 100 to 1000 | CCN(CC)C(=O)[C@H]1CC[C@H]2[C@@H]3CN(CCCC(=O)O)C4=CC(=O)CC[C@]4(C)[C@H]3CC[C@]12C [Compound 47, 17β-N,N-Diethylcarbamoyl-6-(4-butanoic acid)-6-azaandrost-4-en-3-one]
8 | 100 to 1000 | CCN(CC)C(=O)[C@H]1CC[C@H]2[C@@H]3CN(CCCCC(=O)O)C4=CC(=O)CC[C@]4(C)[C@H]3CC[C@]12C [Compound 48, 17β-N,N-Diethylcarbamoyl-6-(5-pentanoic acid)-6-azaandrost-4-en-3-one]
9 | 100 to 1000 | CCN(CC)C(=O)[C@H]1CC[C@H]2[C@@H]3CN(CCCCC(=O)OC)C4=CC(=O)CC[C@]4(C)[C@H]3CC[C@]12C [Compound 49, 17β-N,N-Diethylcarbamoyl-6-(methyl-5-pentanoate)-6-azaandrost-4-en-3-one]
10 | 100 to 1000 | CCN(CC)C(=O)[C@H]1CC[C@H]2[C@@H]3CN(CCCCCC(=O)O)C4=CC(=O)CC[C@]4(C)[C@H]3CC[C@]12C [Compound 50, 17β-N,N-Diethylcarbamoyl-6-(6-hexanoic acid)-6-azaandrost-4-en-3-one]
11 | 100 to 1000 | CCOC(=O)CCCCCN1C[C@H]2[C@@H]3CC[C@H](C(=O)N(CC)CC)[C@@]3(C)CC[C@@H]2[C@@]2(C)CCC(=O)C=C12 [Compound 51, 17β-N,N-Diethylcarbamoyl-6-(ethyl-6-hexanoate)-6-azaandrost-4-en-3-one]
12 | 100 to 1000 | CCN(CC)C(=O)[C@H]1CC[C@H]2[C@@H]3CN(CCOC)C4=CC(=O)CC[C@]4(C)[C@H]3CC[C@]12C [Compound 54, 17β-N,N-Diethylcarbamoyl-6-(2-methoxyethyl)-6-azaandrost-4-en-3-one]

The next lines start with the compound.

Row | SMILES | IC50 [nM]
13 | CCN(CC)C(=O)[C@H]1CC[C@H]2[C@@H]3CNC4=CC(=O)CC[C@]4(C)[C@H]3CC[C@]12C [Compound 1, 17β-N,N-Diethylcarbamoyl-6-azaandrost-4-en-3-one] | < 10
14 | C[C@]12CC[C@H]3[C@@H](CNC4=CC(=O)CC[C@@]43C)[C@@H]1CC[C@@H]2C(=O)Sc1ccccn1 [Compound 4, 17β-(2-Pyridinylthiocarbonyl)-6-azaandrost-4-en-3-one] | < 10
15 | CC(C)CC(=O)[C@H]1CC[C@H]2[C@@H]3CNC4=CC(=O)CC[C@]4(C)[C@H]3CC[C@]12C [Compound 5, 17β-(1-Oxo-3-methylbutyl)-6-azaandrost-4-en-3-one] | < 10
16 | CCC1=C2NC[C@H]3[C@@H]4CC[C@H](C(=O)N(CC)CC)[C@@]4(C)CC[C@@H]3[C@@]2(C)CCC1=O [Compound 12, 17β-N,N-Diethylcarbamoyl-6-azaandrost-4-ethyl-4-en-3-one] | 100 to 1000
17 | CCN(CC)C(=O)[C@H]1CC[C@H]2[C@@H]3CNC4=C(C#N)C(=O)CC[C@]4(C)[C@H]3CC[C@]12C [Compound 13, 17β-N,N-Diethylcarbamoyl-6-azaandrost-4-cyano-4-en-3-one] | 100 to 1000
18 | CCN(CC)C(=O)[C@H]1CC[C@H]2[C@@H]3CNC4=C(CN(C)C)C(=O)CC[C@]4(C)[C@H]3CC[C@]12C [Compound 14, 17β-N,N-Diethylcarbamoyl-6-azaandrost-4-dimethylaminomethylene-4-en-3-one] | 100 to 1000
19 | CN1C[C@H]2[C@@H]3CC[C@H](C(=O)O)[C@@]3(C)CC[C@@H]2[C@@]2(C)CCC(=O)C=C12 [Compound 25, 17β-Carboxy-6-methyl-6-azaandrost-4-en-3-one] | 100 to 1000
20 | C[C@]12CC[C@H]3[C@@H](CNC4=CC(=O)C=C[C@@]43C)[C@@H]1CC[C@@H]2C(=O)NC12CC3CC(CC(C3)C1)C2 [Compound 30, 17β-N-1-Adamantylcarbamoyl-6-azaandrost-1,4-dien-3-one] | < 10
21 | CN1C[C@H]2[C@@H]3CC[C@H](C(=O)NC(C)(C)C)[C@@]3(C)CC[C@@H]2[C@]2(C)C1=CC(=O)[C@@H]1C[C@@H]12 [Compound 34, 17β-N-t-Butylcarbamoyl-6-methyl-6-azaandrost-1α,2α-cyclopropyl-4-en-3-one] | 10 to 100
22 | CCN(CC)C(=O)[C@H]1CC[C@H]2[C@@H]3CN(C(C)C)C4=CC(=O)CC[C@]4(C)[C@H]3CC[C@]12C [Compound 39, 17β-N,N-Diethylcarbamoyl-6-isopropyl-6-azaandrost-4-en-3-one] | < 10
23 | CCN(CC)C(=O)[C@H]1CC[C@H]2[C@@H]3CN(CC(C)C)C4=CC(=O)CC[C@]4(C)[C@H]3CC[C@]12C [Compound 40, 17β-N,N-Diethylcarbamoyl-6-isobutyl-6-azaandrost-4-en-3-one] | 100 to 1000
24 | CCN(CC)C(=O)[C@H]1CC[C@H]2[C@@H]3CN(CC4CC4)C4=CC(=O)CC[C@]4(C)[C@H]3CC[C@]12C [Compound 41, 17β-N,N-Diethylcarbamoyl-6-methylenecyclopropyl-6-azaandrost-4-en-3-one] | 100 to 1000
25 | CCN(CC)C(=O)[C@H]1CC[C@H]2[C@@H]3CN(CCCN4C(=O)c5ccccc5C4=O)C4=CC(=O)CC[C@]4(C)[C@H]3CC[C@]12C [Compound 52, 17β-N,N-Diethylcarbamoyl-6-(3-phthalimidylpropyl)-6-azaandrost-4-en-3-one] | 100 to 1000
26 | CCN(CC)C(=O)[C@H]1CC[C@H]2[C@@H]3CN(CCCCN4C(=O)c5ccccc5C4=O)C4=CC(=O)CC[C@]4(C)[C@H]3CC[C@]12C [Compound 53, 17β-N,N-Diethylcarbamoyl-6-(4-phthalimidylbutyl)-6-azaandrost-4-en-3-one] | 100 to 1000
27 | CCN(CC)C(=O)[C@H]1CC[C@H]2[C@@H]3CNC4=C(F)C(=O)CC[C@]4(C)[C@H]3CC[C@]12C [Compound 70, 17β-N,N-Diethylcarbamoyl-6-azaandrost-4-fluoro-4-en-3-one] | 10 to 100
28 | C[C@]12CC[C@H]3[C@@H](CNC4=CC(=O)CC[C@@]43C)[C@@H]1CC[C@@H]2C(=O)NC(c1ccccc1)(c1ccccc1)c1ccccc1 [Compound 71, 17β-N-Triphenylmethylcarbamoyl-6-azaandrost-4-en-3-one] | < 10
29 | C[C@]12CC[C@H]3[C@@H](CNC4=CC(=O)CC[C@@]43C)[C@@H]1CC[C@@H]2C(=O)Nc1cccc2ccccc12 [Compound 72, 17β-N-1-Napthylcarbamoyl-6-azaandrost-4-en-3-one] | < 10

biological target: Steroid 5-α-Reductase; assay: Steroid 5-α-reductase in vitro assay, rat prostate microsomes; type: biochemical; conditions: rat prostatic microsomes; 100 nM [3H]-testosterone, 1 mM NADPH, 60 minutes at 37° C.; read-out: ID50 Rat

Row | IC50 [nM] | SMILES
30 | 10 to 100 | CCN(CC)C(=O)[C@H]1CC[C@H]2[C@@H]3CNC4=CC(=O)CC[C@]4(C)[C@H]3CC[C@]12C [Compound 1, 17β-N,N-Diethylcarbamoyl-6-azaandrost-4-en-3-one]
31 | 10 to 100 | CCN(CC)C(=O)[C@H]1CC[C@H]2[C@@H]3CN(C)C4=CC(=O)CC[C@]4(C)[C@H]3CC[C@]12C [Compound 2, 17β-N,N-Diethylcarbamoyl-6-methyl-6-azaandrost-4-en-3-one]
32 | 10 to 100 | CC(C)(C)NC(=O)[C@H]1CC[C@H]2[C@@H]3CNC4=CC(=O)CC[C@]4(C)[C@H]3CC[C@]12C [Compound 3, 17β-N-t-Butylcarbamoyl-6-azaandrost-4-en-3-one]
33 | 100 to 1000 | C[C@]12CC[C@H]3[C@@H](CNC4=CC(=O)CC[C@@]43C)[C@@H]1CC[C@@H]2C(=O)Sc1ccccn1 [Compound 4, 17β-(2-Pyridinylthiocarbonyl)-6-azaandrost-4-en-3-one]
34 | 10 to 100 | CC(C)CC(=O)[C@H]1CC[C@H]2[C@@H]3CNC4=CC(=O)CC[C@]4(C)[C@H]3CC[C@]12C [Compound 5, 17β-(1-Oxo-3-methylbutyl)-6-azaandrost-4-en-3-one]
35 | 10 to 100 | CCN(CC)C(=O)[C@H]1CC[C@H]2[C@@H]3CNC4=C(Cl)C(=O)CC[C@]4(C)[C@H]3CC[C@]12C [Compound 8, 17β-N,N-Diethylcarbamoyl-6-azaandrost-4-chloro-4-en-3-one]
36 | 100 to 1000 | CCN(CC)C(=O)[C@H]1CC[C@H]2[C@@H]3CNC4=C(C)C(=O)CC[C@]4(C)[C@H]3CC[C@]12C [Compound 11, 17β-N,N-Diethylcarbamoyl-6-azaandrost-4-methyl-4-en-3-one]
37 | 10 to 100 | CC(C)CC(=O)[C@H]1CC[C@H]2[C@@H]3CN(C)C4=CC(=O)CC[C@]4(C)[C@H]3CC[C@]12C [Compound 26, 17β-(1-Oxo-3-methylbutyl)-6-methyl-6-azaandrost-4-en-3-one]
38 | 10 to 100 | CC(C)CC(=O)[C@H]1CC[C@H]2[C@@H]3CNC4=C(Br)C(=O)CC[C@]4(C)[C@H]3CC[C@]12C [Compound 66, 17β-(1-Oxo-3-methylbutyl)-6-azaandrost-4-bromo-4-en-3-one]
39 | 100 to 1000 | CCN(CC)C(=O)[C@H]1CC[C@H]2[C@@H]3CN(C)C4=C(C)C(=O)CC[C@]4(C)[C@H]3CC[C@]12C [Compound 68, 17β-N,N-Diethylcarbamoyl-6-methyl-6-azaandrost-4-methyl-4-en-3-one]
40 | 100 to 1000 | CC1=C2N(C)C[C@H]3[C@@H]4CC[C@H](C(=O)NC(C)(C)C)[C@@]4(C)CC[C@@H]3[C@@]2(C)CCC1=O [Compound 69, 17β-N-t-Butylcarbamoyl-6-methyl-6-azaandrost-4-methyl-4-en-3-one]
